In BigSolDB 2.1:

CC1=C(C(=O)O)N2C(=O)[C@@H](NC(=O)[C@H](N)C3=CCC=CC3)[C@H]2SC1
solubility (mole fraction)
Settings	283.15 K	285.15 K	288.15 K	291.15 K	293.15 K	298.15 K	303.15 K	308.15 K
in ethanol	0.000187	0.000195	0.000217	0.000233	0.000249	0.000299	0.000368	0.000442
in methanol	0.000575	0.00061	0.00065	0.000702	0.000738	0.000845	0.000955	0.00108
in n-butanol	0.000265	0.000288	0.000335	0.000369	0.000405	0.000478	0.000567	0.000657
in n-propanol	0.00019	0.000198	0.000214	0.000238	0.000253	0.000319	0.000381	0.000469
in water	0.00114	–	0.00115	–	0.00116	0.00117	0.00118	0.0012
